Consider two molecules from EP0993454B1, “BENZO(5,6)CYCLOHEPTA(1,2B)PYRIDINE DERIVATIVES USEFUL FOR INHIBITION OF FARNESYL PROTEIN TRANSFERASE” (SCHERING CORPORATION, priority 1997, dated 1998).

The test addresses farnesyl protein transferase (Homo sapiens, UniProt P49354+P49356). Nature of the test: FPT IC50 (inhibition of farnesyl protein transferase, in vitro enzyme assay). The test is classed as biochemical. Particulars: procedure of WO 95/10516, one collective range stated for the five listed compounds. As to the method:
FPT IC50 (inhibition of farnesyl protein transferase, in vitro enzyme assay) and COS Cell IC50 (Cell-Based Assay) were determined following the assay procedures described in WO 95/10516, published April 20, 1995. GGPT IC50 (inhibition of geranylgeranyl protein transferase, in vitro enzyme assay), Cell Mat Assay, and anti-tumor activity (in vivo anti-tumor studies) could be determined by the assay procedures described in WO 95/10516. The disclosure of WO 95/10516 is incorporated herein by reference thereto.

By IC50 is commonly meant the point on the concentration scale where inhibition reaches its midpoint. Low values mean inhibition by little substance, high ones a need for much substance. With `O=C(CC1CCNCC1)N1CCC(C2(O)c3ncc(Br)cc3CCc3cc(Cl)cc(Br)c32)CC1` (centres unmarked) [2 Step A], the IC50 was in the range of 2 to 42 nM.
Next, `NC(=O)CN1CCC(CC(=O)N2CCC(C3(O)c4ncc(Br)cc4CCc4cc(Cl)cc(Br)c43)CC2)CC1` (centres unmarked) [Example 3, 4-[2-[4-(3,10-dibromo-8-chloro-6,11-dihydro-11-hydroxy-5H-benzo[5,6]cyclohepta-[1,2-B]pyridin-11-yl)-1-piperidinyl]-2-oxoethyl]-1-piperidineacetamide]: 2 to 42 nM.
